Laboratory results as given in patent US10221163B2 (priority 2015, dated 2019).
pIC50: −log10 of the molar value. Read-outs that look alike come from different tables or passages of the source.

How the values were obtained:
[1] = system: Serratia marcescens expressing IMP-1 (CL5741); assay type: cell-based; details: IMP-1 strain CL5741, with imipenem 1 μg/ml, 95% inhibition of growth
Outline: (§1)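 Growth by absorbance after 22–24 h at 35°C defined the read-out, with imipenem fixed at 1 μg/ml alongside compound. Inocula came from overnight blood-agar colonies at 35°C, resuspended in saline and diluted 1:100 in 1.1×CAMHB.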

[2] = system: Escherichia coli expressing NDM-1 (CLB30005, CLB30016); assay type: cell-based; details: NDM-1 strain, with imipenem 1 μg/ml, 95% inhibition of growth
Outline: as §1

[3] = system: Klebsiella pneumoniae expressing VIM-1 (IHMA599644); assay type: cell-based; details: VIM-1 strain IHMA599644, with imipenem 1 μg/ml, 95% inhibition of growth
Outline: as §1

[4] = system: Pseudomonas aeruginosa efflux− (MB9799), IMP-1; assay type: cell-based; details: concentration restoring susceptibility to imipenem at 2 μg/mL in the presence of a class A, C, D serine β-lactamase inhibitor closely related to relebactam
Outline: (§2)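 PAO1 pair, broth microdilution; fixed β-lactam (imipenem/ceftazidime) at ~CLSI breakpoint + fixed class A/C BLI for AmpC; serial MBLi titration; endpoint = MBLi conc. restoring susceptibility; MB9798:MB9799 ratio = efflux liability.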

[5] = system: Pseudomonas aeruginosa MB9798 vs MB9799; details: ratio MITC95 PA_9798/MITC95 PA_9799
Outline: as §2

IMP-1 = IMP-1 (Serratia marcescens, UniProt P52699); assay: biochemical; assay type: biochemical; details: fluorescence assay, CCF2-FA substrate, 2 pM enzyme, 2 hours at 25° C.; read-out: IMP-1 IC50
Outline: (§3)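 Inhibitor was mixed with the metallo-β-lactamase and CCF2-FA. After 2 hours at 25° C, fluorescence of the coumarin–fluorescein cephalosporin substrate was read. IC50 was calculated with a 4-parameter fit.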

NDM-1 = NDM-1 (Klebsiella pneumoniae, UniProt C7C422); assay: biochemical; assay type: biochemical; details: fluorescence assay, CCF2-FA substrate, 1 pM enzyme, 2 hours at 25° C.; read-out: NDM-1 IC50
Outline: as §3

[6] = system: Pseudomonas aeruginosa efflux+ (MB9798), IMP-1; assay type: cell-based; details: concentration restoring susceptibility to imipenem at 2 μg/mL in the presence of a class A, C, D serine β-lactamase inhibitor closely related to relebactam
Outline: as §2

VIM-1 = VIM-1 (Pseudomonas aeruginosa (strain ATCC 15692 / DSM 22644 / CIP 104116 / JCM 14847 / LMG 12228 / 1C / PRS 101 / PAO1), UniProt A0A0F7KYQ8); assay: biochemical; details: CCF2-FA substrate, 30 pM enzyme, 2 hours at 25° C.
Outline: as §3

[7] = fluorescence assay, read-out: VIM-1 IC50

Chain of IMP-1 (P52699 whole entry, looked up, species assumed): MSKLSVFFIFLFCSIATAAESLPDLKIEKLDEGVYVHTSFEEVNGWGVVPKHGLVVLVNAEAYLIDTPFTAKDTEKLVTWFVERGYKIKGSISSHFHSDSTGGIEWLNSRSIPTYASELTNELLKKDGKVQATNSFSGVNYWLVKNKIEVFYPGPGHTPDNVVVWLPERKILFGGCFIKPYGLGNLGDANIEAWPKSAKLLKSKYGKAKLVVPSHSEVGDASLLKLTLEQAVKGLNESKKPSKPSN
Chain of NDM-1 (C7C422 whole entry, looked up, species assumed): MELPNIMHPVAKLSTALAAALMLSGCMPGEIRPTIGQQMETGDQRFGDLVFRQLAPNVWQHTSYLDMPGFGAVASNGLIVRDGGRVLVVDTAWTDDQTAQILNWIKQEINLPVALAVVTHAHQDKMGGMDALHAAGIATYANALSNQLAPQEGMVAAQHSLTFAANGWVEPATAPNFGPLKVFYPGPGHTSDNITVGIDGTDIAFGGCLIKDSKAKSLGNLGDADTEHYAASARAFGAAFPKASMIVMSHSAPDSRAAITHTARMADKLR

| Structure (SMILES) | Serratia marcescens MITC95 [1] | Escherichia coli MITC95 [2] | Klebsiella pneumoniae MITC95 [3] | P. aeruginosa expressing IMP-1, efflux − (MB9799) MITC95 [4] | Efflux ratio [5] | pIC50 (IMP-1) | pIC50 (NDM-1) | P. aeruginosa expressing IMP-1, efflux + (MB9798) MITC95 [6] | pIC50 (VIM-1; VIM-1 IC50, fluorescence assay) | pIC50 (VIM-1; [7]) |
| --- | --- | --- | --- | --- | --- | --- | --- | --- | --- | --- |
| Nc1nc2c(-c3ccc(S(=O)(=O)NC[C@H]4CCCN4)c(S(N)(=O)=O)c3-c3nn[nH]n3)cccc2[nH]1 [Example 261, (R)-4-(2-amino-1H-benzo[d]imidazol-4-yl)-N1-(pyrrolidin-2-ylmethyl)-3-(2H-tetrazol-5-yl)benzene-1,2-disulfonamide] | 0.7813 µM | 0.1953 µM | 0.7813 µM | 0.7813 µM | 1.00 | 9.19 | 10.16 | 0.7813 µM | 9.65 | – |
| Nc1nc2c(-c3ccc(S(=O)(=O)NC[C@@H]4CCCN4)c(S(N)(=O)=O)c3-c3nn[nH]n3)cccc2[nH]1 [Example 262, (S)-4-(2-amino-1H-benzo[d]imidazol-4-yl)-N1-(pyrrolidin-2-ylmethyl)-3-(2H-tetrazol-5-yl)benzene-1,2-disulfonamide] | 0.7813 µM | 0.1953 µM | 0.7813 µM | 0.7813 µM | 1.00 | 9.03 | 10.11 | 0.7813 µM | 9.53 | – |
| Nc1nc2c(-c3ccc(S(=O)(=O)NC[C@@H]4CCNC4)c(S(N)(=O)=O)c3-c3nn[nH]n3)cccc2[nH]1 [Example 263, (R)-4-(2-amino-1H-benzo[d]imidazol-4-yl)-N1-(pyrrolidin-3-ylmethyl)-3-(2H-tetrazol-5-yl)benzene-1,2-disulfonamide] | 0.7813 µM | 0.3906 µM | 1.563 µM | 0.7813 µM | 1.00 | 9.06 | 10.34 | 0.7813 µM | 9.69 | – |
| CC[C@@H](CN)NS(=O)(=O)c1ccc(-c2cccc3[nH]c(N)nc23)c(-c2nn[nH]n2)c1S(N)(=O)=O [Example 264, (S)-4-(2-amino-1H-benzo[d]imidazol-4-yl)-N1-(1-aminobutan-2-yl)-3-(2H-tetrazol-5-yl)benzene-1,2-disulfonamide] | 1.563 µM | 0.7813 µM | 1.563 µM | 0.7813 µM | 4.00 | 8.23 | 9.70 | 3.125 µM | – | 9.33 |
| CC[C@H](CN)NS(=O)(=O)c1ccc(-c2cccc3[nH]c(N)nc23)c(-c2nn[nH]n2)c1S(N)(=O)=O [Example 265, (R)-4-(2-amino-1H-benzo[d]imidazol-4-yl)-N1-(1-aminobutan-2-yl)-3-(2H-tetrazol-5-yl)benzene-1,2-disulfonamide] | 0.7813 µM | 1.563 µM | 1.563 µM | 0.7813 µM | 1.00 | 9.53 | 10.62 | 0.7813 µM | – | 10.03 |
| C[C@H](CCN)NS(=O)(=O)c1ccc(-c2cccc3[nH]c(N)nc23)c(-c2nn[nH]n2)c1S(N)(=O)=O [Example 266, (R)-4-(2-amino-1H-benzo[d]imidazol-4-yl)-N1-(4-aminobutan-2-yl)-3-(2H-tetrazol-5-yl)benzene-1,2-disulfonamide] | 0.7813 µM | 0.7813 µM | 0.7813 µM | 0.7813 µM | 0.50 | 9.32 | 10.55 | 0.3906 µM | – | 9.94 |
| C[C@@H](CCN)NS(=O)(=O)c1ccc(-c2cccc3[nH]c(N)nc23)c(-c2nn[nH]n2)c1S(N)(=O)=O [Example 267, (S)-4-(2-amino-1H-benzo[d]imidazol-4-yl)-N1-(4-aminobutan-2-yl)-3-(2H-tetrazol-5-yl)benzene-1,2-disulfonamide] | 1.563 µM | 0.7813 µM | 1.563 µM | 0.7813 µM | 1.00 | 8.79 | 9.75 | 0.7813 µM | – | 9.56 |
| NCCN1CC[C@H](NS(=O)(=O)c2ccc(-c3cccc4[nH]c(N)nc34)c(-c3nn[nH]n3)c2S(N)(=O)=O)C1 [Example 268, (S)-4-(2-amino-1H-benzo[d]imidazol-4-yl)-N1-(1-(2-aminoethyl)pyrrolidin-3-yl)-3-(2H-tetrazol-5-yl)benzene-1,2-disulfonamide] | 1.563 µM | 0.7813 µM | 1.563 µM | 0.7813 µM | 1.00 | 8.96 | 10.21 | 0.7813 µM | 9.82 | – |
| NCC(=O)NC1CCC[C@@H](c2ccc(S(=O)(=O)N[C@@H]3CCNC3)c(S(N)(=O)=O)c2-c2nn[nH]n2)C1 (stereo partly drawn) [Example 270, 2-Amino-N-((3R)-3-(4-(N—((R)-pyrrolidin-3-yl)sulfamoyl)-3-sulfamoyl-2-(2H-tetrazol-5-yl)phenyl)cyclohexyl)acetamide] | 3.125 µM | 1.563 µM | 3.125 µM | 1.563 µM | 1.00 | 8.64 | 9.61 | 1.563 µM | – | 9.70 |
| NC(=O)c1nc2c(-c3ccc(S(=O)(=O)N[C@@H]4CCNC4)c(S(N)(=O)=O)c3-c3nn[nH]n3)cccc2[nH]1 [Example 271, (R)-4-(4-(N-(pyrrolidin-3-yl)sulfamoyl)-3-sulfamoyl-2-(2H-tetrazol-5-yl)phenyl)-1H-benzo[d]imidazole-2-carboxamide] | 0.7813 µM | 1.563 µM | 3.125 µM | 1.563 µM | 0.50 | 9.57 | 10.71 | 0.7813 µM | – | 10.00 |
| C[C@H](N)c1nc2c(-c3ccc(S(=O)(=O)N[C@@H]4CCNC4)c(S(N)(=O)=O)c3-c3nn[nH]n3)cccc2[nH]1 [Example 272, 4-(2-((S)-1-aminoethyl)-1H-benzo[d]imidazol-4-yl)-N1-((R)-pyrrolidin-3-yl)-3-(2H-tetrazol-5-yl)benzene-1,2-disulfonamide] | 1.563 µM | 3.125 µM | 1.563 µM | 0.7813 µM | 2.00 | 8.87 | 10.18 | 1.563 µM | – | 9.96 |
| C[C@@H](N)c1nc2c(-c3ccc(S(=O)(=O)N[C@@H]4CCNC4)c(S(N)(=O)=O)c3-c3nn[nH]n3)cccc2[nH]1 [Example 273, 4-(2-((R)-1-aminoethyl)-1H-benzo[d]imidazol-4-yl)-N1-((R)-pyrrolidin-3-yl)-3-(2H-tetrazol-5-yl)benzene-1,2-disulfonamide] | 1.563 µM | 1.563 µM | 1.563 µM | 0.7813 µM | 1.00 | 8.85 | 10.25 | 0.7813 µM | – | 9.91 |
